{"source": "patent US5484940A", "about": "“Substituted 3-indolyl-5-pyrazolone compounds” (priority 1994, dated 1996)", "key": {"[1]": {"tested_on": "β-amyloid peptide production", "assay": "Cellular screen for inhibitors of β-amyloid production (ELISA, 293 751 SWE cells)", "assay_type": "cell-based, human", "conditions": "2 h pretreatment + 2 h, normalized for cytotoxicity (MTT), concentration not given", "method_in_brief": "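293 751 SWE cells (K293 stably expressing APP751 Swedish mutant) pretreated 2 h with compound, then fresh compound-containing medium for 2 h more at 37 °C. Secreted β-amyloid in conditioned medium quantified by sandwich ELISA (capture 266 anti-Aβ13-28, labelled 6C6 anti-Aβ1-16) against a standard curve as ng/mL; mean ± SD of ≥6 replicates.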"}, "rat cortical neurons": {"tested_on": "rat cortical neurons", "assay": "Inhibition of toxicity of β-amyloid peptide to rat neuronal cells (alamarBlue)", "assay_type": "cell-based", "conditions": "10 to 20 μM β-amyloid peptide, 2-3 days; on average where more than one duplicate experiment; compound concentration not stated", "protocol": "The purpose of this test is to determine the effect of 3-indolyl-5-pyrazolone compounds on the toxicity of β-amyloid peptide to neuronal cells.\nPrimary rat cortical cultures were established from 18 day rat fetuses. Cortical tissue was dissociated by incubation in a trypsin/EDTA solution (0.05% trypsin+0.53 mM EDTA in HBSS; GIBCO Laboratories, Grand Island, N.Y., USA) for 20 minutes at 37° C. The trypsin was then inactivated by resuspending the cells in serum-containing medium (DMEM/FBS): Dulbecco's Modified Eagles' Medium (DMEM) containing 4.5 g/L glucose, 1 mM sodium pyruvate, 1 mM glutamine, 100 Units/mL penicillin, 100 μg/mL streptomycin, and supplemented with 10% heat-inactivated fetal bovine serum (GIBCO Laboratories, Grand Island, N.Y., USA). Cells were then pelleted by centrifugation and resuspended in a chemically-defined medium (DMEM/B27: DMEM containing B27 supplement; GIBCO Laboratories, Grand Island, N.Y., USA) in place of FBS. Polyethyleneimine (PEI; Sigma Chemical Company, St. Louis, Mo., USA)-coated 6.4 mm (96-well) dishes were timed once with DMEM/FBS, and then seeded at 0.75 to 1.25×10^5 cells per well in 0.1 mL DMEM/B27. Cultures were maintained in a H2 O-saturated incubator with an atmosphere of 90% air/10% CO2 at 37° C. Cell viability was visually assessed by phase contrast microscopy and quantified by measuring the reduction of alamarBlue™ (Alamar biosciences, Inc., Sacramento, Calif., USA) as described below. Serum replacement with B27 supplement yields nearly pure neuronal cultures as judged by immunocytochemistry for glial fibrillary acidic protein and neuron-specific enolase (Brewer, et al.^20)\nβ-amyloid peptide stock solutions were prepared as 1 mM stocks in sterile, doubly distilled water immediately prior to addition to cultures. Rat cortical neurons were exposed to β-amyloid peptide by removing the culture medium and replacing it with DMEM/N2 (GIBCO Laboratories,Grand Island, N.Y., USA) containing 10 to 20 μM β-amyloid peptide. Human cortical neurons were exposed to test compound plus β-amyloid peptide by removing the culture medium and replacing it with MEM containing 50 μM β-amyloid peptide. Cultures were maintained for 2-3 days before neuronal survival was quantified using alamarBlue™.\nThe alamarBlue™ assay incorporates a fluorometric/colorimetric metabolic indicator (Alamar Biosciences, Inc. Sacramento, Calif., USA). Viable cells convert alamarBlue™ from an oxidized (non-fluorescent, blue) form to a reduced (fluorescent, red) form. Assays were preformed by replacing the culture media with a 10% alamarBlue™ solution in DMEM (rat cortical cultures) or MEM (human cortical cultures)."}}}
{"molecule": "COc1ccc2c(c1)c(CC1=NN(c3cccc(C(F)(F)F)c3)C(=O)C1)c(C)n2C(=O)c1ccc(Cl)cc1", "note": "[Example 25, 3-[1-(4-chlorobenzoyl)-5-methoxy-2-methyl-3-indolylmethyl]-1-(3-trifluoromethylphenyl)-5-pyrazolone]", "values": [{"measurement": "reduction of β-amyloid peptide production as compared to control", "setting": "[1]", "result": "at least 20%"}, {"measurement": "inhibition of the toxicity of β-amyloid peptide to rat neuronal cells", "setting": "rat cortical neurons", "result": "at least 10%"}]}
